Data reported in patent US9212168B2 (priority 2011, dated 2015).

Legend:
HCV genotype 1a replicon = HCV genotype 1a replicon assay (NS3 protease activity readout); type: cell-based, hepatitis C virus; conditions: for EC50: Hepatitis C virus, read-out: Genotype 1a, HCV genotype 1a replicon; for Genotype 1a: HCV genotype 1a replicon
Procedure, shortened: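 Genotype 1a subgenomic replicon cells (APC89, Huh7.5) were treated with compound dose-responses in G418-free medium, 0.5% DMSO final, for 48 or 72 hours at 37° C. Lysate NS3/4a protease activity measured with 15 μM FRET substrate, 20 min at 37° C (ex 340/em 509 nm); EC50 by 4-parameter fit.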

HCV genotype 1b replicon = HCV genotype 1b replicon assay (Renilla luciferase readout); type: cell-based, hepatitis C virus; conditions: for EC50: Hepatitis C virus, read-out: Genotype 1b; for Genotype 1b: HCV genotype 1b replicon
Procedure, shortened: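 Huh7-derived APC144 subgenomic replicon cells carrying Renilla luciferase–NS3-NS5B, seeded 10,000/well without G418, then treated with compound dose-responses for 48 h at 37 °C (0.5% DMSO final). Luciferase signal fitted by 4-parameter model to EC50, reported as pEC50.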

Structure (SMILES) | EC50 (HCV genotype 1a replicon) | EC50 (HCV genotype 1b replicon) | Genotype 1a (HCV genotype 1a replicon) | Genotype 1b (HCV genotype 1b replicon)
COC(=O)NC(C(=O)N1C[C@@H](C)C[C@H]1c1nc(-c2ccc(-c3c(F)cc(NC(=O)c4ccc(N5CCN(C(=O)C(C)(C)C)C[C@H]5C)nc4)cc3F)cc2)c[nH]1)C1CCOCC1 (stereo partly shown) [Example 21-3] | < 0.1 nM | < 0.1 nM |  | 
COC(=O)N[C@H](C(=O)N1[C@@H](C)CC[C@H]1c1nc(-c2ccc(-c3cc(Cl)c(C(=O)Nc4ccc(N5CCN(C(=O)C(C)(C)C)C[C@H]5C)nc4)cc3OC(F)(F)F)cc2)c[nH]1)C1C[C@@H](C)O[C@@H](C)C1 (stereo partly shown) [Example 18-6] |  |  | D (D represents pEC50>10 (EC50<0.1 nM)) | D (D represents pEC50>10 (EC50<0.1 nM))
COC(=O)N[C@H](C(=O)N1C[C@@H](C)C[C@H]1c1nc(-c2ccc(-c3cc(F)c(NC(=O)c4ccc(N5C[C@H](C)N(C(=O)c6c[nH]cn6)C[C@H]5C)nc4)cc3OC(F)(F)F)cc2)c[nH]1)C(C)C [Example 1-14] |  |  | D (D represents pEC50>10 (EC50<0.1 nM)) | D (D represents pEC50>10 (EC50<0.1 nM))
COC(=O)N[C@H](C(=O)N1C[C@@H](C)C[C@H]1c1nc(-c2ccc(-c3cc(Cl)c(NC(=O)c4ccc(N5CCN(C(=O)C(C)(C)C)[C@H](C)C5)nc4)cc3OC(F)(F)F)cc2)c[nH]1)C1CCOCC1 [Example 20-6] |  |  | D (D represents pEC50>10 (EC50<0.1 nM)) | D (D represents pEC50>10 (EC50<0.1 nM))
COC(=O)N[C@H](C(=O)N1C[C@@H](C)C[C@H]1c1nc(-c2ccc(-c3cc(Cl)c(NC(=O)c4ccc(N5C[C@H](C)N(C(=O)c6c[nH]cn6)C[C@H]5C)nc4)cc3OC(F)(F)F)cc2)c[nH]1)C(C)C [Example 1-19] |  |  | D (D represents pEC50>10 (EC50<0.1 nM)) | D (D represents pEC50>10 (EC50<0.1 nM))
COC(=O)N[C@H](C(=O)N1C[C@@H](OC)C[C@H]1c1nc(-c2ccc(-c3cc(Cl)c(NC(=O)c4ccc(N5CCN(C(=O)[C@]67C[C@H]6CCN7)C[C@H]5C)nc4)cc3OC(F)(F)F)cc2)c[nH]1)C(C)C [Example 27-5] |  |  | D (D represents pEC50>10 (EC50<0.1 nM)) | D (D represents pEC50>10 (EC50<0.1 nM))
COC(=O)N[C@H](C(=O)N1C[C@@H](C)C[C@H]1c1nc(-c2ccc(-c3ccc(C(=O)Nc4ccc(N5CCN(C(=O)[C@]6(C)CCCN6C(=O)[C@@H](NC(=O)OC)C(C)C)C[C@H]5C)nc4)cc3)cc2)c[nH]1)C(C)C [Example 4-2] |  |  | D (D represents pEC50>10 (EC50<0.1 nM)) | D (D represents pEC50>10 (EC50<0.1 nM))
COC(=O)N[C@H](C(=O)N1C[C@@H](OC)C[C@H]1c1nc(-c2ccc(-c3cc(Cl)c(NC(=O)c4ccc(N5C[C@H](C)N(C(=O)[C@H]6CC6(C)C)C[C@H]5C)nc4)cc3OC(F)(F)F)cc2)c[nH]1)C1CCOCC1 [Example 28-6] |  |  | D (D represents pEC50>10 (EC50<0.1 nM)) | D (D represents pEC50>10 (EC50<0.1 nM))
COC(=O)NC(CC1CCOCC1)C(=O)N1C[C@@H](C)C[C@H]1c1nc(-c2ccc(-c3cc(Cl)c(NC(=O)c4ccc(N5CCN(C(=O)C(C)(C)C)C[C@H]5C)nc4)cc3OC(F)(F)F)cc2)c[nH]1 (stereo partly shown) [Example 13-34] | < 0.1 nM | < 0.1 nM |  | 
COC(=O)NC(C(=O)N1CC(OC)CC1c1nc(-c2ccc(-c3cc(Cl)c(NC(=O)c4ccc(N5CCN(C(=O)C(C)(C)C)CC5C)nc4)cc3OC(F)(F)F)cc2)c[nH]1)C(C)OC (stereo not shown) [Example 16-3] |  |  | D (D represents pEC50>10 (EC50<0.1 nM)) | D (D represents pEC50>10 (EC50<0.1 nM))
CNC(=O)N1CCN(c2ccc(NC(=O)c3ccc(-c4ccc(-c5c[nH]c([C@@H]6C[C@@H]7CCCC[C@@H]7N6C(=O)[C@@H](NC(=O)OC)C(C)C)n5)cc4)c(OC(F)(F)F)c3)cn2)[C@H](C)C1 [Example 6-11] | 0.1 to 1 nM | < 0.1 nM |  | 
COC(=O)N[C@H](C(=O)N1C[C@@H](C)C[C@H]1c1nc(-c2ccc(-c3cc(Cl)c(NC(=O)c4ccc(N5CCN(C(=O)C(C)(C)CO)C[C@H]5C)nc4)cc3OC(F)(F)F)cc2)c(CO)[nH]1)C1CCOCC1 [Example 20-3] |  |  | D (D represents pEC50>10 (EC50<0.1 nM)) | D (D represents pEC50>10 (EC50<0.1 nM))
COC(=O)N[C@H](C(=O)N1C[C@@H](C)C[C@H]1c1nc(-c2ccc(-c3cc(F)c(NC(=O)c4ccc(N5CCN(C(=O)C(C)(C)C)C[C@H]5C)nc4)cc3Cl)cc2)c[nH]1)C(C)C [Example 5-6] | 0.1 to 1 nM | < 0.1 nM |  | 
COC(=O)N[C@H](C(=O)N1C[C@@H](C)C[C@H]1c1nc(-c2ccc(-c3ccc(C(=O)Nc4ccc(N5CCN(C(=O)C(C)(C)C)C[C@H]5C)nc4)cc3)cc2)c[nH]1)C1CCOCC1 [Example 22-1] |  |  | D (D represents pEC50>10 (EC50<0.1 nM)) | D (D represents pEC50>10 (EC50<0.1 nM))
COC(=O)N[C@H](C(=O)N1[C@@H](C)CC[C@H]1c1nc(-c2ccc(-c3cc(Cl)c(NC(=O)c4ccc(N5CCN(C(=O)C(C)(C)C)C[C@H]5C)nc4)cc3OC(F)(F)F)cc2)c[nH]1)C(C)C [Example 17-3] |  |  | D (D represents pEC50>10 (EC50<0.1 nM)) | D (D represents pEC50>10 (EC50<0.1 nM))
COC(=O)N[C@H](C(=O)N1C[C@@H](OC)C[C@H]1c1nc(-c2ccc(-c3cc(Cl)c(NC(=O)c4ccc(N5CCN(C(=O)C(C)(C)C)C[C@H]5C)nc4)cc3OC(F)(F)F)cc2)c(CO)[nH]1)C(C)C [Example 5-18] | < 0.1 nM | < 0.1 nM |  | 
COC(=O)N[C@H](C(=O)N1C[C@@H](N(C)C)C[C@H]1c1nc(-c2ccc(-c3ccc(NC(=O)c4ccc(N5CCN(C(=O)C6CC6)C[C@H]5C)nc4)cc3)cc2)c[nH]1)C(C)C [Example 6, ((S)-1-{(2S,4S)-2-[4-(4′-{[6-((R)-4-Cyclopropanecarbonyl-2-methyl-piperazin-1-yl)-pyridine-3-carbonyl]-amino}-biphenyl-4-yl)-1H-imidazol-2-yl]-4-dimethylamino-pyrrolidine-1-carbonyl}-2-methyl-propyl)-carbamic acid methyl ester] | 0.1 to 1 nM | < 0.1 nM |  | 
[2H]C([2H])([2H])C1(C([2H])([2H])[2H])CC1C(=O)N1CCN(c2ccc(C(=O)Nc3cc(OC(F)(F)F)c(-c4ccc(-c5c[nH]c([C@@H]6C[C@H](C)CN6C(=O)[C@@H](NC(=O)OC)C(C)C)n5)cc4)cc3F)cn2)[C@H](C)C1 (stereo partly shown) [Example 1-92] |  |  | D (D represents pEC50>10 (EC50<0.1 nM)) | D (D represents pEC50>10 (EC50<0.1 nM))
COC(=O)N[C@H](C(=O)N1C[C@@H](C)C[C@H]1c1nc(-c2ccc(-c3cc(Cl)c(NC(=O)c4ccc(N5CCN(C(=O)C6CC(O)C6)C[C@H]5C)nc4)cc3OC(F)(F)F)cc2)c[nH]1)C(C)C (stereo partly shown) [Example 12-47] | < 0.1 nM | < 0.1 nM |  | 
COC(=O)N[C@H](C(=O)N1C[C@@H](C)C[C@H]1c1nc(-c2ccc(-c3cc(Cl)c(NC(=O)c4ccc(N5C[C@H](C)N(C(=O)[C@H]6CC6(C)C)C[C@H]5C)nc4)cc3C(F)(F)F)cc2)c[nH]1)C(C)C [Example 1-11] |  |  | D (D represents pEC50>10 (EC50<0.1 nM)) | D (D represents pEC50>10 (EC50<0.1 nM))
COC(=O)N[C@H](C(=O)N1C[C@@H](C)C[C@H]1c1nc(-c2ccc(-c3cc(F)c(NC(=O)c4ccc(N5CCN(C(=O)C(C)(C)C)C[C@H]5C)nc4)cc3F)cc2)c[nH]1)C(C)C [Example 1-82] |  |  | C (C represents pEC50 between and 9 and about 10, (EC50 between 1 nM and 0.1 nM)) | D (D represents pEC50>10 (EC50<0.1 nM))
COC(=O)N[C@H](C(=O)N1C[C@@H](N(C)C)C[C@H]1c1nc(-c2ccc(-c3ccc(C(=O)Nc4ccc(N5CCN(C(=O)C6CC6(C)C)C[C@H]5C)nc4)cc3)cc2)c[nH]1)C(C)C (stereo partly shown) [Example 6-5] | 0.1 to 1 nM | < 0.1 nM |  | 
COC(=O)N[C@H](C(=O)N1C[C@@H](C)C[C@H]1c1nc(-c2ccc(-c3ccc(NC(=O)c4ccc(N5CCN(C(=O)[C@H]6CC6(C)C)C[C@H]5C)nc4)cc3C(F)(F)F)cc2)c[nH]1)C(C)C [Example 1-62] |  |  | D (D represents pEC50>10 (EC50<0.1 nM)) | D (D represents pEC50>10 (EC50<0.1 nM))
COC(=O)NC(C(=O)N1CC(OC)CC1c1nc(-c2ccc(-c3cc(Cl)c(NC(=O)c4ccc(N5CCN(C(=O)C(C)(C)CO)CC5C)nc4)cc3OC(F)(F)F)cc2)c[nH]1)C(C)O (stereo not shown) [Example 16-7] |  |  | D (D represents pEC50>10 (EC50<0.1 nM)) | D (D represents pEC50>10 (EC50<0.1 nM))
CNC(=O)N1C[C@@H](C)N(c2ccc(C(=O)Nc3cc(C(F)(F)F)c(-c4ccc(-c5c[nH]c([C@@H]6C[C@H](C)CN6C(=O)[C@@H](NC(=O)OC)C(C)C)n5)cc4)cc3Cl)cn2)C[C@@H]1C [Example 1-12] |  |  | D (D represents pEC50>10 (EC50<0.1 nM)) | D (D represents pEC50>10 (EC50<0.1 nM))
COC(=O)N[C@H](C(=O)N1C[C@@H](OC)C[C@H]1c1nc(-c2ccc(-c3cc(Cl)c(NC(=O)c4ccc(N5CCN(C(=O)[C@H]6CC6(C)C)C[C@H]5C)nc4)cc3OC(F)(F)F)cc2)c[nH]1)C(C)C [Example 27-1] |  |  | D (D represents pEC50>10 (EC50<0.1 nM)) | D (D represents pEC50>10 (EC50<0.1 nM))
